Reference: the supplement of paper PMC10307832

Experiments:
Assay in all cases: relative viability (nuclei count vs DMSO), 5 days (fraction); higher = more cells survive
[1] = tested on: 201T
Summary of the method: (§1)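 One day after seeding in 1536-well plates, lung cancer cell lines were dosed by pin tool. Dosing was either single-drug or a fixed anchor-drug dose plus five library-drug doses (not always all listed) in √10 steps. After 5 days, nuclei were stained in one fix-and-stain step and counted on 4× images, and relative viability is the nuclei count of treated wells over that of vehicle wells, given as the median of duplicate plates.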

[2] = tested on: BEN
Summary of the method: as §1

[3] = tested on: CAL-12T
Summary of the method: as §1

[4] = tested on: HCC-827
Summary of the method: as §1

[5] = tested on: LCLC-103H
Summary of the method: as §1

[6] = tested on: LCLC-97TM1
Summary of the method: as §1

[7] = tested on: LXF-289
Summary of the method: as §1

[8] = tested on: NCI-H1395
Summary of the method: as §1

[9] = tested on: NCI-H1437
Summary of the method: as §1

[10] = tested on: NCI-H1650
Summary of the method: as §1

[11] = tested on: NCI-H1792
Summary of the method: as §1

[12] = tested on: NCI-H1793
Summary of the method: as §1

[13] = tested on: NCI-H1944
Summary of the method: as §1

[14] = tested on: NCI-H2087
Summary of the method: as §1

[15] = tested on: NCI-H2228
Summary of the method: as §1

[16] = tested on: NCI-H2405
Summary of the method: as §1

[17] = tested on: NCI-H3122
Summary of the method: as §1

[18] = tested on: NCI-H322M
Summary of the method: as §1

[19] = tested on: NCI-H647
Summary of the method: as §1

[20] = tested on: NCI-H727
Summary of the method: as §1

[21] = tested on: RERF-LC-KJ
Summary of the method: as §1

[22] = tested on: SK-LU-1
Summary of the method: as §1

SMILES: COc1nc(C)cnc1NS(=O)(=O)c1cccnc1-c1ccc(-c2nnco2)cc1 [Zibotentan] + N=C(N)NC(=N)NCCc1ccccc1 [Phenformin] (partner 250 µM)
- relative viability ([1]; first compound 0.08 µM): 0.477
- relative viability ([1]; first compound 0.253 µM): 0.451
- relative viability ([1]; first compound 0.8 µM): 0.441
- relative viability ([1]; first compound 2.53 µM): 0.442
- relative viability ([2]; first compound 0.08 µM): 0.278
- relative viability ([2]; first compound 0.253 µM): 0.261
- relative viability ([2]; first compound 0.8 µM): 0.241
- relative viability ([2]; first compound 2.53 µM): 0.264
- relative viability ([3]; first compound 0.08 µM): 0.602
- relative viability ([3]; first compound 0.253 µM): 0.482
- relative viability ([3]; first compound 0.8 µM): 0.554
- relative viability ([3]; first compound 2.53 µM): 0.609
- relative viability ([4]; first compound 0.08 µM): 0.429
- relative viability ([4]; first compound 0.253 µM): 0.399
- relative viability ([4]; first compound 0.8 µM): 0.387
- relative viability ([4]; first compound 2.53 µM): 0.421
- relative viability ([5]; first compound 0.08 µM): 0.357
- relative viability ([5]; first compound 0.253 µM): 0.314
- relative viability ([5]; first compound 0.8 µM): 0.315
- relative viability ([5]; first compound 2.53 µM): 0.333
- relative viability ([6]; first compound 0.08 µM): 0.457
- relative viability ([6]; first compound 0.253 µM): 0.449
- relative viability ([6]; first compound 0.8 µM): 0.464
- relative viability ([6]; first compound 2.53 µM): 0.465
- relative viability ([7]; first compound 0.08 µM): 0.533
- relative viability ([7]; first compound 0.253 µM): 0.489
- relative viability ([7]; first compound 0.8 µM): 0.571
- relative viability ([7]; first compound 2.53 µM): 0.543
- relative viability ([8]; first compound 0.08 µM): 0.43
- relative viability ([8]; first compound 0.253 µM): 0.45
- relative viability ([8]; first compound 0.8 µM): 0.464
- relative viability ([8]; first compound 2.53 µM): 0.486
- relative viability ([9]; first compound 0.08 µM): 0.308
- relative viability ([9]; first compound 0.253 µM): 0.297
- relative viability ([9]; first compound 0.8 µM): 0.297
- relative viability ([9]; first compound 2.53 µM): 0.347
- relative viability ([10]; first compound 0.08 µM): 0.454
- relative viability ([10]; first compound 0.8 µM): 0.516
- relative viability ([10]; first compound 2.53 µM): 0.428
- relative viability ([11]; first compound 0.08 µM): 0.424
- relative viability ([11]; first compound 0.253 µM): 0.244
- relative viability ([11]; first compound 0.8 µM): 0.355
- relative viability ([11]; first compound 2.53 µM): 0.259
- relative viability ([12]; first compound 0.08 µM): 0.404
- relative viability ([12]; first compound 0.253 µM): 0.431
- relative viability ([12]; first compound 0.8 µM): 0.31
- relative viability ([12]; first compound 2.53 µM): 0.406
- relative viability ([13]; first compound 0.08 µM): 0.226
- relative viability ([13]; first compound 0.253 µM): 0.181
- relative viability ([13]; first compound 0.8 µM): 0.188
- relative viability ([13]; first compound 2.53 µM): 0.202
- relative viability ([14]; first compound 0.08 µM): 0.423
- relative viability ([14]; first compound 0.253 µM): 0.428
- relative viability ([14]; first compound 0.8 µM): 0.54
- relative viability ([14]; first compound 2.53 µM): 0.486
- relative viability ([15]; first compound 0.08 µM): 0.324
- relative viability ([15]; first compound 0.253 µM): 0.314
- relative viability ([15]; first compound 0.8 µM): 0.444
- relative viability ([15]; first compound 2.53 µM): 0.415
- relative viability ([16]; first compound 0.08 µM): 0.422
- relative viability ([16]; first compound 0.253 µM): 0.39
- relative viability ([16]; first compound 0.8 µM): 0.436
- relative viability ([16]; first compound 2.53 µM): 0.439
- relative viability ([17]; first compound 0.08 µM): 0.378
- relative viability ([17]; first compound 0.8 µM): 0.408
- relative viability ([17]; first compound 2.53 µM): 0.373
- relative viability ([18]; first compound 0.08 µM): 0.824
- relative viability ([18]; first compound 0.253 µM): 0.589
- relative viability ([18]; first compound 0.8 µM): 0.831
- relative viability ([18]; first compound 2.53 µM): 0.816
- relative viability ([19]; first compound 0.08 µM): 0.472
- relative viability ([19]; first compound 0.253 µM): 0.512
- relative viability ([19]; first compound 0.8 µM): 0.37
- relative viability ([19]; first compound 2.53 µM): 0.531
- relative viability ([20]; first compound 0.08 µM): 0.41
- relative viability ([20]; first compound 0.253 µM): 0.519
- relative viability ([20]; first compound 0.8 µM): 0.553
- relative viability ([20]; first compound 2.53 µM): 0.627
- relative viability ([21]; first compound 0.08 µM): 0.423
- relative viability ([21]; first compound 0.8 µM): 0.418
- relative viability ([21]; first compound 2.53 µM): 0.447
- relative viability ([22]; first compound 0.08 µM): 0.53
- relative viability ([22]; first compound 0.253 µM): 0.463
- relative viability ([22]; first compound 0.8 µM): 0.501
- relative viability ([22]; first compound 2.53 µM): 0.503

SMILES: COc1nc(C)cnc1NS(=O)(=O)c1cccnc1-c1ccc(-c2nnco2)cc1 [Zibotentan] + O=C(c1cc(Cc2n[nH]c(=O)c3ccccc23)ccc1F)N1CCN(C(=O)C2CC2)CC1 [Olaparib] (partner 8 µM)
- relative viability ([1]; first compound 0.08 µM): 0.819
- relative viability ([1]; first compound 0.253 µM): 0.828
- relative viability ([1]; first compound 0.8 µM): 0.846
- relative viability ([1]; first compound 2.53 µM): 0.876
- relative viability ([2]; first compound 0.08 µM): 1.15
- relative viability ([2]; first compound 0.253 µM): 1.09
- relative viability ([2]; first compound 0.8 µM): 1.09
- relative viability ([2]; first compound 2.53 µM): 0.958
- relative viability ([3]; first compound 0.08 µM): 0.742
- relative viability ([3]; first compound 0.253 µM): 0.67
- relative viability ([3]; first compound 0.8 µM): 0.768
- relative viability ([3]; first compound 2.53 µM): 0.664
- relative viability ([4]; first compound 0.08 µM): 0.64
- relative viability ([4]; first compound 0.253 µM): 0.647
- relative viability ([4]; first compound 0.8 µM): 0.667
- relative viability ([4]; first compound 2.53 µM): 0.669
- relative viability ([5]; first compound 0.08 µM): 0.738
- relative viability ([5]; first compound 0.253 µM): 0.74
- relative viability ([5]; first compound 0.8 µM): 0.696
- relative viability ([5]; first compound 2.53 µM): 0.751
- relative viability ([6]; first compound 0.08 µM): 0.383
- relative viability ([6]; first compound 0.253 µM): 0.393
- relative viability ([6]; first compound 0.8 µM): 0.433
- relative viability ([6]; first compound 2.53 µM): 0.385
- relative viability ([7]; first compound 0.08 µM): 1.01
- relative viability ([7]; first compound 0.253 µM): 1
- relative viability ([7]; first compound 0.8 µM): 1.14
- relative viability ([7]; first compound 2.53 µM): 1.09
- relative viability ([8]; first compound 0.08 µM): 0.401
- relative viability ([8]; first compound 0.253 µM): 0.486
- relative viability ([8]; first compound 0.8 µM): 0.436
- relative viability ([8]; first compound 2.53 µM): 0.495
- relative viability ([9]; first compound 0.08 µM): 0.64
- relative viability ([9]; first compound 0.253 µM): 0.629
- relative viability ([9]; first compound 0.8 µM): 0.617
- relative viability ([9]; first compound 2.53 µM): 0.621
- relative viability ([10]; first compound 0.08 µM): 0.803
- relative viability ([10]; first compound 0.8 µM): 0.757
- relative viability ([10]; first compound 2.53 µM): 0.682
- relative viability ([11]; first compound 0.08 µM): 0.235
- relative viability ([11]; first compound 0.253 µM): 0.408
- relative viability ([11]; first compound 0.8 µM): 0.323
- relative viability ([11]; first compound 2.53 µM): 0.373
- relative viability ([12]; first compound 0.08 µM): 0.998
- relative viability ([12]; first compound 0.253 µM): 0.835
- relative viability ([12]; first compound 0.8 µM): 0.796
- relative viability ([12]; first compound 2.53 µM): 0.957
- relative viability ([13]; first compound 0.08 µM): 0.417
- relative viability ([13]; first compound 0.253 µM): 0.369
- relative viability ([13]; first compound 0.8 µM): 0.392
- relative viability ([13]; first compound 2.53 µM): 0.406
- relative viability ([14]; first compound 0.08 µM): 0.658
- relative viability ([14]; first compound 0.253 µM): 0.668
- relative viability ([14]; first compound 0.8 µM): 0.63
- relative viability ([14]; first compound 2.53 µM): 0.48
- relative viability ([15]; first compound 0.08 µM): 0.658
- relative viability ([15]; first compound 0.253 µM): 0.573
- relative viability ([15]; first compound 0.8 µM): 0.863
- relative viability ([15]; first compound 2.53 µM): 0.924
- relative viability ([16]; first compound 0.08 µM): 0.878
- relative viability ([16]; first compound 0.253 µM): 0.843
- relative viability ([16]; first compound 0.8 µM): 0.915
- relative viability ([16]; first compound 2.53 µM): 0.892
- relative viability ([17]; first compound 0.08 µM): 0.625
- relative viability ([17]; first compound 0.253 µM): 0.549
- relative viability ([17]; first compound 0.8 µM): 0.581
- relative viability ([17]; first compound 2.53 µM): 0.608
- relative viability ([18]; first compound 0.08 µM): 0.758
- relative viability ([18]; first compound 0.253 µM): 0.659
- relative viability ([18]; first compound 0.8 µM): 0.949
- relative viability ([18]; first compound 2.53 µM): 0.727
- relative viability ([19]; first compound 0.08 µM): 0.592
- relative viability ([19]; first compound 0.253 µM): 0.421
- relative viability ([19]; first compound 0.8 µM): 0.665
- relative viability ([19]; first compound 2.53 µM): 0.494
- relative viability ([20]; first compound 0.08 µM): 0.712
- relative viability ([20]; first compound 0.253 µM): 0.586
- relative viability ([20]; first compound 0.8 µM): 0.661
- relative viability ([20]; first compound 2.53 µM): 0.868
- relative viability ([21]; first compound 0.08 µM): 0.832
- relative viability ([21]; first compound 0.253 µM): 0.802
- relative viability ([21]; first compound 0.8 µM): 0.921
- relative viability ([21]; first compound 2.53 µM): 0.894
- relative viability ([22]; first compound 0.08 µM): 0.507
- relative viability ([22]; first compound 0.253 µM): 0.477
- relative viability ([22]; first compound 0.8 µM): 0.579
- relative viability ([22]; first compound 2.53 µM): 0.615
